This passage reports target mRNA knockdown results from the OligoGym collection.

HELM strings list units from the 5' end as sugar, base in round brackets, then linkage (d deoxyribose, r ribose, m 2'-O-methyl, p phosphodiester). Strings are as the collection lists them, not checked against the first reports. ss, as = sense and antisense strand; [lna] = locked nucleic acid (LNA); [hna] = hexitol nucleic acid; [s4r] = 4'-thioribose; [fl2r] = 2'-fluoro
Note: test system not given here.

For this data set the following is noted: siRNA.
“RNA1{r(A)p.r(U)p.r(C)p.r(U)p.r(G)p.r(A)p.r(A)p.r(G)p.r(A)p.r(A)p.r(G)p.r(G)p.r(A)p.r(G)p.r(A)p.r(A)p.r(A)p.r(A)p.r(A)p.d(T)p.d(T)}|RNA2{r(U)p.r(U)p.r(U)p.r(U)p.r(U)p.r(C)p.r(U)p.r(C)p.r(C)p.r(U)p.r(U)p.r(C)p.r(U)p.r(U)p.r(C)p.r(A)p.r(G)p.r(A)p.r(U)p.[lna](T)p.[lna](T)}$$$RNA1{StrandType:ss}|RNA2{StrandType:as}$” returned a target mRNA knockdown of 93%. “RNA1{r(C)p.r(G)p.r(G)p.r(A)p.r(U)p.r(C)p.m(U)p.r(A)p.m(C)p.r(A)p.r(C)p.r(C)p.r(U)p.r(U)p.m(C)p.r(A)p.r(A)p.r(G)p.r(A)p.r(T)p.r(T)}|RNA2{r(U)p.r(C)p.r(U)p.m(U)p.r(G)p.r(A)p.r(A)p.r(G)p.r(G)p.m(U)p.r(G)p.m(U)p.r(A)p.r(G)p.r(A)p.r(U)p.r(C)p.r(C)p.r(G)p.r(T)p.r(T)}$$$RNA1{StrandType:ss}|RNA2{StrandType:as}$” registered a target mRNA knockdown of 68%.

Substance “RNA1{r(U)p.r(C)p.r(C)p.m(U)p.r(A)p.r(G)p.r(C)p.m(U)p.r(G)p.r(U)p.r(C)p.r(U)p.m(U)p.r(G)p.r(U)p.r(C)p.r(C)p.r(C)p.r(U)p.r(T)p.r(T)}|RNA2{r(A)p.r(G)p.r(G)p.r(G)p.r(A)p.m(C)p.r(A)p.r(A)p.r(G)p.r(A)p.m(C)p.r(A)p.r(G)p.r(C)p.m(U)p.r(A)p.r(G)p.r(G)p.r(A)p.r(T)p.r(T)}$$$RNA1{StrandType:ss}|RNA2{StrandType:as}$” registered a target mRNA knockdown of 68%.

“RNA1{r(G)p.r(A)p.r(G)p.r(G)p.r(A)p.r(U)p.r(G)p.r(G)p.r(A)p.r(U)p.r(U)p.r(C)p.r(G)p.r(A)p.r(C)p.r(U)p.r(U)p.r(A)p.r(G)p.r(T)p.r(T)}|RNA2{r(C)p.m(U)p.r(A)p.r(A)p.r(G)p.r(U)p.r(C)p.r(G)p.r(A)p.r(A)p.r(U)p.r(C)p.r(C)p.r(A)p.r(U)p.r(C)p.r(C)p.r(U)p.r(C)p.r(T)p.r(T)}$$$RNA1{StrandType:ss}|RNA2{StrandType:as}$”: the target mRNA knockdown is 94%.

“RNA1{r(A)p.m(U)p.m(C)p.r(G)p.r(A)p.m(C)p.m(C)p.m(U)p.r(G)p.r(A)p.r(A)p.r(G)p.r(G)p.r(A)p.r(G)p.m(U)p.r(A)p.m(C)p.r(G)p.r(T)p.r(T)}|RNA2{m(C)p.r(G)p.m(U)p.r(A)p.m(C)p.m(U)p.m(C)p.m(C)p.m(U)p.m(U)p.m(C)p.r(A)p.r(G)p.r(G)p.m(U)p.m(C)p.r(G)p.r(A)p.m(U)p.r(T)p.r(T)}$$$RNA1{StrandType:ss}|RNA2{StrandType:as}$” displayed a target mRNA knockdown of 19%.

Consider “RNA1{r(C)p.r(G)p.r(G)p.r(G)p.r(U)p.r(A)p.r(C)p.r(G)p.r(A)p.r(G)p.r(C)p.r(C)p.r(G)p.r(G)p.r(A)p.r(A)p.r(C)p.r(C)p.r(U)p.r(T)p.r(T)}|RNA2{r(A)p.r(G)p.r(G)p.r(U)p.r(U)p.r(C)p.r(C)p.r(G)p.r(G)p.r(C)p.r(U)p.r(C)p.r(G)p.[fl2r](U)p.r(A)p.r(C)p.r(C)p.r(C)p.r(G)p.r(T)p.r(T)}$$$RNA1{StrandType:ss}|RNA2{StrandType:as}$”, for which the target mRNA knockdown was found to be 69%. The result for “RNA1{[s4r](C)p.[s4r](G)p.[s4r](U)p.[s4r](A)p.[s4r](C)p.[s4r](G)p.r(C)p.r(G)p.r(G)p.r(A)p.r(A)p.r(U)p.r(A)p.r(C)p.r(U)p.r(U)p.r(C)p.r(G)p.r(A)p.r(T)p.r(T)}|RNA2{r(U)p.r(C)p.r(G)p.r(A)p.r(A)p.r(G)p.r(U)p.r(A)p.r(U)p.r(U)p.r(C)p.r(C)p.r(G)p.r(C)p.r(G)p.r(U)p.r(A)p.r(C)p.r(G)p.r(T)p.r(T)}$$$RNA1{StrandType:ss}|RNA2{StrandType:as}$” reads 94%. The result for “RNA1{[hna](G)p.[hna](A)p.[hna](C)p.r(G)p.r(U)p.r(A)p.r(A)p.r(A)p.r(C)p.r(G)p.r(G)p.r(C)p.r(C)p.r(A)p.r(C)p.r(A)p.r(A)p.[hna](G)p.[hna](U)p.[hna](U)p.d(T)}|RNA2{r(A)p.r(C)p.r(U)p.r(U)p.r(G)p.r(U)p.r(G)p.r(G)p.r(C)p.r(C)p.r(G)p.r(U)p.r(U)p.r(U)p.r(A)p.r(C)p.r(G)p.[hna](U)p.[hna](C)p.[hna](G)p.d(T)}$$$RNA1{StrandType:ss}|RNA2{StrandType:as}$” reads 84.6%; that for “RNA1{m(G)p.r(C)p.m(A)p.r(A)p.m(G)p.r(U)p.m(G)p.r(G)p.m(C)p.r(A)p.m(A)p.r(G)p.m(A)p.r(G)p.m(G)p.r(A)p.m(U)p.r(U)p.r(A)p.r(T)p.r(T)}|RNA2{r(U)p.r(A)p.r(A)p.r(U)p.r(C)p.r(C)p.r(U)p.r(C)p.r(U)p.r(U)p.r(G)p.r(C)p.r(C)p.r(A)p.r(C)p.r(U)p.r(U)p.r(G)p.r(C)p.r(T)p.r(T)}$$$RNA1{StrandType:ss}|RNA2{StrandType:as}$”, 55%; that for “RNA1{r(A)p.r(U)p.r(C)p.r(C)p.m(U)p.r(G)p.m(C)p.r(A)p.r(G)p.r(A)p.r(A)p.m(G)p.r(A)p.r(A)p.r(G)p.r(C)p.r(C)p.r(U)p.r(C)p.r(T)p.r(T)}|RNA2{r(G)p.r(A)p.r(G)p.r(G)p.r(C)p.r(U)p.r(U)p.r(C)p.r(U)p.r(U)p.r(C)p.m(U)p.r(G)p.m(C)p.r(A)p.r(G)p.r(G)p.r(A)p.r(U)p.r(T)p.r(T)}$$$RNA1{StrandType:ss}|RNA2{StrandType:as}$”, 50%. In turn, “RNA1{[lna](G)p.r(C)p.r(A)p.r(G)p.r(C)p.r(A)p.r(C)p.r(G)p.r(A)p.r(C)p.r(U)p.r(U)p.r(C)p.r(U)p.r(U)p.r(C)p.r(A)p.r(A)p.r(G)p.r(U)p.r(U)}|RNA2{r(C)p.r(U)p.r(U)p.r(G)p.r(A)p.r(A)p.r(G)p.r(A)p.r(A)p.r(G)p.r(U)p.r(C)p.r(G)p.r(U)p.r(G)p.r(C)p.r(U)p.r(G)p.r(C)p.r(U)p.r(U)}$$$RNA1{StrandType:ss}|RNA2{StrandType:as}$” returned a target mRNA knockdown of 73.2%. “RNA1{r(A)p.r(A)p.r(C)p.r(C)p.r(C)p.r(A)p.r(C)p.r(C)p.r(A)p.r(C)p.r(A)p.r(G)p.r(C)p.r(U)p.r(A)p.r(G)p.r(A)p.r(A)p.r(C)p.r(U)p.r(U)}|RNA2{r(A)p.r(A)p.r(G)p.[fl2r](U)p.[fl2r](U)p.r(C)p.[fl2r](U)p.r(A)p.r(G)p.r(C)p.r(U)p.r(G)p.[fl2r](U)p.r(G)p.r(G)p.[fl2r](U)p.r(G)p.r(G)p.r(G)p.[fl2r](U)p.[fl2r](U)}$$$RNA1{StrandType:ss}|RNA2{StrandType:as}$” returned a target mRNA knockdown of 14%. The same measure for “RNA1{r(G)p.r(A)p.r(C)p.r(G)p.r(U)p.r(A)p.r(A)p.r(A)p.r(C)p.r(G)p.r(G)p.r(C)p.r(C)p.r(A)p.r(C)p.r(A)p.r(A)p.r(G)p.r(U)p.[lna](T)p.[lna](C)}|RNA2{r(A)p.m(C)p.r(U)p.r(U)p.r(G)p.r(U)p.r(G)p.r(G)p.r(C)p.r(C)p.r(G)p.r(U)p.r(U)p.r(U)p.r(A)p.r(C)p.r(G)p.r(U)p.r(C)p.r(G)p.r(C)}$$$RNA1{StrandType:ss}|RNA2{StrandType:as}$”: 81%; for “RNA1{[s4r](A)p.[s4r](A)p.[s4r](A)p.[s4r](C)p.r(A)p.r(U)p.r(G)p.r(C)p.r(A)p.r(G)p.r(A)p.r(A)p.r(A)p.r(A)p.r(U)p.[s4r](G)p.[s4r](C)p.[s4r](U)p.[s4r](G)p.r(T)p.r(T)}|RNA2{r(C)p.r(A)p.r(G)p.r(C)p.r(A)p.r(U)p.r(U)p.r(U)p.r(U)p.r(C)p.r(U)p.r(G)p.r(C)p.r(A)p.r(U)p.r(G)p.r(U)p.r(U)p.r(U)p.r(T)p.r(T)}$$$RNA1{StrandType:ss}|RNA2{StrandType:as}$”: 79.1%.
